The values that follow come from EP2705856A1, “Compounds for the treatment of neurodegenerative disorders” (Deutsches Zentrum für Neurodegenerative Erkrankungen e.V., priority 2012, dated 2014).

One assay deals with hFKBP12 (Homo sapiens, UniProt P62942). The assay is described as follows: Protease-coupled PPIase assay, FKBP12. The assay is classed as biochemical. Particulars: Example 3; read-out: IC50 value, inhibition of PPlase activity of FKBP12. On the procedure: The PPlase activity of hFKBP12 and hCypA was determined by using the protease-coupled PPlase assay as described by Fischer, H. Bang, B. Ludwig, K. Mann, J. Hacker, Mol. Microbiol. 1992, 6, 1375-1383. […] Then reaction was started by addition of 100 µg/mL of the isomer specific protease chymotrypsin, and the release of 4-nitroaniline was monitored by measuring the absorbance at 390 nm. […] Since tested PPlases vary in there catalytic efficiencies, different substrates has to be used to ensure equal rate constants of catalyzed cis/trans isomerization (Table 1). […] Table 1. Substrates for the respective PPlases
Chain of hFKBP12 (P62942 whole entry): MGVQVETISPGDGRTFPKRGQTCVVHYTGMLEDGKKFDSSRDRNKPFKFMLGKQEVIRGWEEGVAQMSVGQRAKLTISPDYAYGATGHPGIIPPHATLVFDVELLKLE

The target in a further assay is hCypA (Homo sapiens, UniProt P62937). Kind of assay: Protease-coupled PPIase assay, CypA. The assay is classed as biochemical. On the procedure:
The PPlase activity of hFKBP12 and hCypA was determined by using the protease-coupled PPlase assay as described by Fischer, H. Bang, B. Ludwig, K. Mann, J. Hacker, Mol. Microbiol. 1992, 6, 1375-1383. To study the effect of compounds 7-10 on PPlase activity, 100 nM of each hFKBP and 5 nM of each hCyp, respectively and 40 µM peptide substrate were preincubated in the presence or absence of various inhibitor concentrations for 6 min at 10 °C in 35mM HEPES/NaCl buffer (pH 7.5). Then reaction was started by addition of 100 µg/mL of the isomer specific protease chymotrypsin, and the release of 4-nitroaniline was monitored by measuring the absorbance at 390 nm. To achieve better comparability of compounds 7-10 effects on PPlase activity, the concentrations of FKBP and Cyp were kept constant at 100 nM and 5 nM, respectively. Since tested PPlases vary in there catalytic efficiencies, different substrates has to be used to ensure equal rate constants of catalyzed cis/trans isomerization (Table 1). […] Table 1. Substrates for the respective PPlases

Structures are written as SMILES. Read-outs that look alike come from different tables or passages of the source.

Chain of hCypA (P62937 whole entry): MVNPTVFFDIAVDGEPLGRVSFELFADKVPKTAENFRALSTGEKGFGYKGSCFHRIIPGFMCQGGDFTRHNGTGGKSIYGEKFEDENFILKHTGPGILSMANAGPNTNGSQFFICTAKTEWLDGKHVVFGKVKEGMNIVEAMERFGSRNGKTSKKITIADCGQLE

`C[C@@H]1C[C@@H]([C@H](O)CC2CC(=O)N(CC(=O)N(C)C)C(=O)C2)C(=O)[C@@H](C)C1` [DM-CHX, N-(N,N-Dimethylcarboxamidomethyl)cycloheximid]: the IC50 on hFKBP12 was 36.9 ± 17.1 nM.

Consider `C/C=C/C[C@@H](C)[C@@H](O)[C@H]1C(=O)N[C@@H](CC)C(=O)N(C)CC(=O)N(C)[C@@H](CC(C)C)C(=O)N[C@@H](C(C)C)C(=O)N(C)[C@@H](CC(C)C)C(=O)N[C@@H](C)C(=O)N[C@H](CO)C(=O)N(C)[C@@H](CC(C)C)C(=O)N(C)[C@@H](CC(C)C)C(=O)N(C)[C@@H](C(C)C)C(=O)N1C` [[D-Ser^8]-CsA], for which the IC50 on hCypA (read-out: /C50-values, inhibition of PPlase activity of hCypA, Example 1, Figure 1: hCypA 5 nM, substrate suc-Ala-Ala-Pro-Phe-pNA) is 8.3 ± 1.4 nM; on hCypA (read-out: IC50 value, inhibition of CypA, Example 3), 1.5 ± 0.4 nM.
